Data published in PMC11506171, “Quercetin as a Modulator of PTPN22 Phosphomonoesterase Activity: A Biochemical and Computational Evaluation” (Current Issues in Molecular Biology, 2024).

Legend:
Format in all cases: biochemical
[1] = target: T1, protein tyrosine phosphatase nonreceptor type 22 (PTPN22) (Homo sapiens, UniProt Q9Y2R2); assay: pNPP phosphatase assay, single concentration screen at […]; conditions: read-out: % inhibition at 50 μM
T1 construct: catalytic domain, amino acids 1 to 303
T1 sequence (Q9Y2R2 1-303): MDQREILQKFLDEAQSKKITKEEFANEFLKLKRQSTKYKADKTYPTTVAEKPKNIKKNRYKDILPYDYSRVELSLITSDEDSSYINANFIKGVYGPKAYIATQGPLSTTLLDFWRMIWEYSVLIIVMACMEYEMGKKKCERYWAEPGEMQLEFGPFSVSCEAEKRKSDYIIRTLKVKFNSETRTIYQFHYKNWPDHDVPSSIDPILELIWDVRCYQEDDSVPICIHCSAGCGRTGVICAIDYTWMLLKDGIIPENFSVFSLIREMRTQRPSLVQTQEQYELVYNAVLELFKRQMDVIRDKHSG

[2] = target: T1, protein tyrosine phosphatase nonreceptor type 22 (PTPN22); assay: pNPP phosphatase assay with recombinant enzyme; Lineweaver-Burk and Dixon plots (Ki […])
[3] = target: T1, protein tyrosine phosphatase nonreceptor type 22 (PTPN22); assay: pNPP phosphatase assay with recombinant enzyme, reference inhibitor

SMILES | inhibition at 50 µM [1] [%] | also measured
O=C1C=C(O)C(=O)c2ccccc21 [2HNQ] | 62 | –
O=C1C=CC(=O)c2c(O)cccc21 [5HNQ] | 61 | –
CO[C@H]1C[C@H](O[C@H]2[C@H](C)O[C@@H](O[C@@H]3/C(C)=C/C[C@@H]4C[C@@H](C[C@]5(C=C[C@H](C)[C@@H](C6CCCCC6)O5)O4)OC(=O)[C@@H]4C=C(C)[C@@H](O)[C@H]5OC/C(=C\C=C\[C@@H]3C)[C@]54O)C[C@@H]2OC)O[C@@H](C)[C@@H]1O [doramectin] | 50 | –
O=c1c(O)c(-c2ccc(O)c(O)c2)oc2cc(O)cc(O)c12 [quercetin] | – | IC50 [2]: 29.6 µM
CO[C@H]1C[C@H](O[C@@H]2/C(C)=C/C[C@@H]3C[C@@H](C[C@]4(CC[C@H](C)[C@@H](C5CCCCC5)O4)O3)OC(=O)[C@@H]3C=C(C)/C(=N/O)[C@H]4OC/C(=C\C=C\[C@@H]2C)[C@]43O)O[C@@H](C)[C@@H]1O [selamectin] | 54 | –
C[C@H]1[C@H](C)CC[C@]2(C(=O)O)CC[C@]3(C)C(=CC[C@@H]4[C@@]5(C)CC[C@H](O)C(C)(C)[C@@H]5CC[C@]43C)[C@H]12 [ursolic acid] | – | IC50 [3]: 37.2 µM
